From patent US20060069136A1, “Use of Epothilones in the treatment of bone metastasis” (priority 2004, published 2006)
Values joined by “and” are separate entries in the source; they are usually repeats but may differ in a detail not shown here. Equal values may be shown once.

Tests used:
[1] = test system: Human breast cancer MDA MB 231; experiment: Bone metastasis model, Example 1: treatment on Day 10, X-ray on Day 22, survival; format: in vivo, NMRI nude mice
Procedure: (§1) Human breast cancer MDA MB 231, injected to NMRI nude mice intracardially
Four days before tumor cells implantation, the baseline bone structure of the mice was determined by X-ray. 30 NMRI nude mice received 500,000 of MDA-MB 231 breast cancer tumor cells intracardially (Day 0). The tumor cells metastasized to the bones and the growth of the tumor in the bones lead to bone destruction. After the period of 10 days (Day 10), 10 of the […] animals were treated with the Test Compound (10 mg/kg, i.v.). The size and number of bone metastases were monitored 4 days before tumor cell implantation (baseline) and on Day 22 in each animal using the X-ray technology described below.
The mice underwent an anaesthesia with a mixture of Rompun (Rompun 2% Bayer) diluted with sodium chloride solution(Braun) by 1:10 and Ketavet ( Pharmacia GmbH 100 mg/ml), diluted by 1:5 with isotonic sodium chloride solution. For application of the narcotics, 1 ml sterile syringes (Codan Medical) and cannula (Braun Sterican, size 18) were used.
Once the tolerance stage was reached, the mice were attached to a 1 mm strong acrylic glass and additionally taped with a self-adhesive tape (sticky side facing the animal). The acrylic glass served as surface on which the animals underwent the X-ray.
At the console of the Mammomat (run by the software “Detector” (Ifg) on Windows NT platform), the standard setting of 35 kV and 400 mAs was adjusted. The setting was chosen in such a way to allow a good contrasting of the entire skeletal system and visibility of finest changes/aberrations of the bone structure and morphology. The resolution of the systems lies at 0,27 μm.
After initializing the Software the module “Zoomed Modus” was chosen for the detector and the ROIs 2-3 were selected in accordance with the previously selected positioning of the mouse. The regulator Image High was adjusted to 2000.
The actual measurements were started as soon as the Offset measurings and the reference measurings had been performed. The flexible table was brought into position (80 mm) and was advanced at a speed of 25,9 mm/sec. The final position of the table was chosen in such a way that the entire body of the mouse could be X-rayed all at once during the examination. The reference measuring was subtracted from each gained Image and was stored as a DICOM-file or as a BMP-file.
Analysis of the treatment was performed on Day 22 by evaluating twice the constructed exposures of the mice and searching for destructive processes of the skeletal system (focussing mainly on the long bones, spine and pelvis). The extend/area of the destructive processes/bone metastasis were determined with a special DICOM-Software (based on Microsoft Excel).

[2] = test system: Human breast cancer MDA MB 231; experiment: Bone metastasis model, Example 2: treatment on Day 5, X-ray on Day 20; format: in vivo, NMRI nude mice; details: 10 mg/kg i.v. on Day 5
Procedure: as §1
30 NMRI nude mice received 500,000 of MDA-MB 231 breast cancer tumor cells intracardially (Day 0). The tumor cells metastasized to the bones and the growth of the tumor in the bones lead to bone destruction. In addition, the development of tumors near the tumor cell injection site is observed. After 5 days (Day 5), 15 of the 30 animals were treated with the Test Compound (10 mg/kg, i.v.). On Day 20 the experiment was terminated and the size and number of bone metastases were measured in each animal using the X-ray technology described in example 1. In addition, the numer of animals which developed tumors at the tumor cell injection site was determined.

[3] = 10 mg/kg i.v. on Day 10, result in words
[4] = mean per animal, measured on Day 20 by X-ray, 10 mg/kg

## C=CCC1C(=O)C(C)(C)C(O)CC(=O)OC(c2ccc3sc(C)nc3c2)CC2OC2(C)CCCC(C)C1O (stereo not shown) [Test Compound, 7,11-dihydroxy-3-(2-methyl-benzothiazol-5-yl)-10-(prop-2-en-1-yl)-8,8,12,16-tetramethyl-4,17-dioxabicyclo[14.1.0]heptadecane-5,9-dione]
[1]; [3]
  Effect on bone metastasis (FIG. 1): inhibited bone metastasis
  Effect on life time (FIG. 1): prolongation of life time was observed
[1]; 10 mg/kg i.v., single application on Day 10, MDA-MB 231 cells intracardially
  Mean Survival Time: 31.6 days
[1]; 10 mg/kg i.v., single treatment on Day 10, X-ray analysis on Day 22, MDA-MB 231 cells intracardially
  Mean Bone Tumor Area: 5.9 mm^2
[2]; [4]
  Number of bone-metastases: 0.7 and 0.7 ± 0.9
  Size of bone-metastases: 0.1 mm^2 and 0.1 ± 0.2 mm^2
[2]; of 15 animals, Day 20
  Number of animals which developed tumors at the tumor cell injection site: 0
